Laboratory results from patent US20120270251A1, “INHIBITION OF THE ACTIVITY OF KINASE AND SYNTHETASE ENZYMES” (CSIR, priority 2009, published 2012).

Biological target: Mycobacterium tuberculosis shikimate kinase (Mycobacterium tuberculosis, UniProt P9WPY3)
Test: Shikimate kinase steady-state kinetics, ATP vs C8D-ATP
Type: biochemical
Excerpt: Hexokinase from Saccharomyces cerevisiae Type F-300 (Sigma, H4502) and Acetate kinase from E. coli (Sigma, A7437) were purchased. The human adenylate kinase (AK1) gene in vector pLIG-SC1 was obtained from the Structural Genomics Consortium (code AK1A). The His-tagged AK1 was produced in Escherichia coli Origami (DE3) and purified using the Bio-Rad Profinia Purification System. […] The Mycobacterium tuberculosis shikimate kinase gene in pET15b (Novagen) was obtained from the group of Chris Abell, Cambridge University, UK. The his-tagged MtSK was produced in E. coli BL21 (DE3) and purified using the Bio-Rad Profinia Purification System. The pure protein was dialysed against 50 mM Tris (pH 7.5) and 1,000 mM NaCl. Adenylylated (GS12) and deadenylylated (GS0) glutamine synthetase were prepared as outlined below.
The final volumes were 100 μl, and the reactions were incubated at 37° C. for 20 minutes, before being terminated by the addition of 5 μl 200 mM EDTA.
The results are reflected in FIGS. 19 to 25. […] The best-fit to the data was obtained for the specified kinetic model using the non-linear regression algorithms as outlined using the GraphPad Prism® 5 software. […] These response curves were then used to define the KIE by the conventional estimation of KIE from KIE=vH/vD. The KIED was also determined using the following function: […]

[1] = tested model: Allosteric sigmoidal

Sequence of Mycobacterium tuberculosis shikimate kinase (P9WPY3 whole entry): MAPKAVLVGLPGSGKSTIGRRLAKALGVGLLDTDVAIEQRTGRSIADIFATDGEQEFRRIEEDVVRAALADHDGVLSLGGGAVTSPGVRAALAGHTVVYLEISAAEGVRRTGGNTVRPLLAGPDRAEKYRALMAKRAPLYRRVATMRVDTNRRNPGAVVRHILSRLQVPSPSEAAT

Row | Structure (SMILES) | fit to kinetic model [1] | fit to kinetic model (tested model: Michaelis-Menton) | KIEvmax (KIE at maximum enzyme activity)
1 | Nc1ncnc2c1ncn2[C@@H]1O[C@H](COP(=O)(O)OP(=O)(O)OP(=O)(O)O)[C@@H](O)[C@H]1O [ATP, adenosine triphosphate, reference compound] | Allosteric sigmoidal | Fit ambiguous | –
2 | Nc1ncnc2c1ncn2[C@@H]1O[C@H](COP(=O)(O)OP(=O)(O)OP(=O)(O)O)[C@@H](O)[C@H]1O [C8D-ATP] | Allosteric sigmoidal | Fit ambiguous | 1
